The IC50 is the concentration needed to halve the response being measured. A high value points to weaker potency. The term EC50 denotes the concentration needed to bring the measured effect to its halfway point. The low end stands for an effect from little substance, the high end for a need for much substance.

Each structure is given as a SMILES string. Some results are limits rather than exact numbers.

The text below walks through data of patent US12391679B2, “Benzamide-substituted bicyclic imidazo- and pyrazolo-fused -pyridine, -pyrimide, and -pyridazine compounds for treatment of inflammatory diseases” (ONCO3R Therapeutics BV, priority 2019, dated 2025).

Assay [1] deals with T1, SIK2 (Homo sapiens, UniProt Q9H0K1).
T1 construct: purchased ThermoFisher Scientific PV4792
T1 sequence (Q9H0K1 whole entry): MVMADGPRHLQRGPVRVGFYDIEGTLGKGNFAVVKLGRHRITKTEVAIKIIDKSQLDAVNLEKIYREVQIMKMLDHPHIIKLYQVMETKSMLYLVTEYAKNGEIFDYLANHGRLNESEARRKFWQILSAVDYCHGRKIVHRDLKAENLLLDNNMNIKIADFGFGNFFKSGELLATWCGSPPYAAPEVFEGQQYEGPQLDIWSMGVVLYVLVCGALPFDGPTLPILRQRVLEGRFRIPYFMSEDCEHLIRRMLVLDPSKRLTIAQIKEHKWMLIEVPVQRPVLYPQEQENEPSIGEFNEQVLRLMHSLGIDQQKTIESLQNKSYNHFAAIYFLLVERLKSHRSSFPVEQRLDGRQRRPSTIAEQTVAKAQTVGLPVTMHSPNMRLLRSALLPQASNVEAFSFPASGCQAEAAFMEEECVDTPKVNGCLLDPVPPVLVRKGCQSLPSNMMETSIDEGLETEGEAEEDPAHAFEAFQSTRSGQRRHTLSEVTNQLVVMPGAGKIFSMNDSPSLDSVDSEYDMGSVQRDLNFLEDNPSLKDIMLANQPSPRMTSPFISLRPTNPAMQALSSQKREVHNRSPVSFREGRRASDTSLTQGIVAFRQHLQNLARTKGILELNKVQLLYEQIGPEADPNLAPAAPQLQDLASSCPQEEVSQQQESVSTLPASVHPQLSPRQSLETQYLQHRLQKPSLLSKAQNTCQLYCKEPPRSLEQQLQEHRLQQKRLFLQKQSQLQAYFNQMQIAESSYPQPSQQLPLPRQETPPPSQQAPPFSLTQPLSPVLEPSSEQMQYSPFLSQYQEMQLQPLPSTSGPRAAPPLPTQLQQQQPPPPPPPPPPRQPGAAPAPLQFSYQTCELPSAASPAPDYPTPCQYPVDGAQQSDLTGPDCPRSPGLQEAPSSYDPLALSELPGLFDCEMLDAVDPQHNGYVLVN
As to the kind of experiment: ADP-Glo kinase assay, SIK2. The assay is classed as biochemical. The method, boiled down:
(§1)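 Steps: add enzyme–substrate mixture; start with diluted ATP; incubate RT 120 min; add ADP-Glo Reagent to terminate and remove unconsumed ATP, 40 min; add detection reagent, 30 min; read luminescence. DMSO at 1% and staurosporine at 10 μM (final) define assay windows.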
Background: ADP-Glo first removes unused ATP, then detects ADP through luciferase.

Assay [2] has as its target T2, SIK3 (Homo sapiens, UniProt Q9Y2K2).
T2 construct: purchased SignalChem S12-11G-100
As to the kind of experiment: ADP-Glo kinase assay, SIK3. The class given is biochemical. The method, boiled down:
as §1

The subject of assay [3] is LPS-induced TNFα in monocytes. As to the kind of experiment: Monocytes assay: LPS-triggered TNFα (ELISA). The class given is cell-based, human. The following applies: Homo sapiens, Monocyte, LPS-triggered TNFα inhibition. The method, boiled down:
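TNFα secretion was triggered with 200 ng/mL LPS for 4 h in human blood CD14+ monocytes after 1 h compound pretreatment at 37 °C, with 0.2% final DMSO. Supernatants were analysed by streptavidin-HRP/luminol ELISA, and percentage inhibition at each concentration was derived relative to control wells.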
A general note: An ELISA detects its analyte on a solid surface through an enzyme-linked reagent.

The test system of assay [4] is LPS triggered IL-10 secretion in monocytes. As to the kind of experiment: Monocytes assay: LPS-triggered IL-10 (ELISA). The assay is classed as cell-based, human. The following applies: Homo sapiens, Monocyte, LPS-triggered IL-10 induction, median maximal fold change vs LPS only, read-out: IL-10 FCmax median. The method, boiled down: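 CD14+ monocytes bead-isolated from human PBMCs, pretreated with compound 1 h at 37 °C (0.2% DMSO), then stimulated with LPS 200 ng/mL for 4 h. Supernatant IL-10 measured by chemiluminescent sandwich ELISA; fold change versus LPS only per concentration, reported as maximal fold change (FCmax).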

T2 sequence (Q9Y2K2 59-365 limits assumed): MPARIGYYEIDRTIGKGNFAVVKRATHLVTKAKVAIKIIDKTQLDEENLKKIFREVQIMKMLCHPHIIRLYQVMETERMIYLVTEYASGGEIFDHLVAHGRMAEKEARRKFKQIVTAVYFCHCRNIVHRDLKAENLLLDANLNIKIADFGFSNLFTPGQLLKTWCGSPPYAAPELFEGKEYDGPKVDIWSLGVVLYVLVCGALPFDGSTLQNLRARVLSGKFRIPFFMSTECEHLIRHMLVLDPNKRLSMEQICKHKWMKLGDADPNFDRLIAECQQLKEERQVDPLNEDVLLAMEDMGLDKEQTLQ

Regarding `COc1cc(-c2cnc3cc(C4(C#N)COC4)ccn23)cc(OC(F)F)c1C(=O)NC1CC1` [Cpd 117, 4-[7-(3-cyanooxetan-3-yl)imidazo[1,2-a]pyridin-3-yl]-N-cyclopropyl-2-(difluoromethoxy)-6-methoxy-benzamide], the 50% inhibitory concentration (IC50) in assay [1] is > 500 nM; in assay [2], 0.01 to 10 nM. Besides, in assay [3], the EC50 is 100 to 1000 nM. The maximal fold induction in assay [4] fell in the range of 1.5 to 4.5.

As for `COc1cc(-c2cnc3cc(C4(C#N)CCOC4)ccn23)cc(OC(F)F)c1C(=O)NC1CC1` (stereo not drawn) [Cpd 123, 4-[7-(3-cyanotetrahydrofuran-3-yl)imidazo[1,2-a]pyridin-3-yl]-N-cyclopropyl-2-(difluoromethoxy)-6-methoxy-benzamide], the IC50 in assay [1] was > 500 nM; in assay [2] it was 10 to 100 nM. In assay [3], this molecule gave an EC50 of 100 to 1000 nM. In addition, the maximal fold induction in assay [4] was 1.5 to 4.5.

`COc1cc(-c2cnc3cc(C(C)(O)C(F)(F)F)ccn23)cc(OC(F)F)c1C(=O)NC1CC1` (stereo not drawn) [Cpd 129, N-cyclopropyl-2-(difluoromethoxy)-6-methoxy-4-[7-(2,2,2-trifluoro-1-hydroxy-1-methyl-ethyl)imidazo[1,2-a]pyridin-3-yl]benzamide]: the IC50 in assay [1] is > 500 nM; in assay [2], 10 to 100 nM. For the same molecule, the EC50 in assay [3] is 100 to 1000 nM. Also, in assay [4], the maximal fold induction lay within 1.5 to 4.5.

`COc1cc(-c2cnc3cc(C4(C#N)COC4)ccn23)cc(OC(F)F)c1C(=O)N[C@@H]1C[C@@H]1F` [Cpd 130, 4-[7-(3-cyanooxetan-3-yl)imidazo[1,2-a]pyridin-3-yl]-2-(difluoromethoxy)-N-[(1R,2S)-2-fluorocyclopropyl]-6-methoxy-benzamide]: the half-inhibitory concentration (IC50) in assay [1] is > 500 nM; in assay [2] it was 0.01 to 10 nM. This molecule also came in with an EC50 in assay [3] of 100 to 1000 nM. In addition, the maximal fold induction in assay [4] lay in the range of 1.5 to 4.5.

On to `COc1cc(-c2cnc3cc(C(F)(F)CO)ccn23)cc(OC(F)F)c1C(=O)NC1CC1` [Cpd 136, N-cyclopropyl-4-[7-(1,1-difluoro-2-hydroxy-ethyl)imidazo[1,2-a]pyridin-3-yl]-2-(difluoromethoxy)-6-methoxy-benzamide], for which the IC50 in assay [1] was in the range of 100 to 500 nM; in assay [2], 0.01 to 10 nM. In addition, the EC50 in assay [3] lay in the range of 100 to 1000 nM. Moreover, the maximal fold induction in assay [4] is 1.5 to 4.5.

Turning to `CCC(C)(O)c1ccn2c(-c3cc(OC)c(C(=O)NC4CC4)c(OC(F)F)c3)cnc2c1` (stereo not drawn) [Cpd 137, N-cyclopropyl-2-(difluoromethoxy)-4-[7-(1-hydroxy-1-methyl-propyl)imidazo[1,2-a]pyridin-3-yl]-6-methoxy-benzamide], the IC50 in assay [1] is > 500 nM; in assay [2], 10 to 100 nM. The same molecule displayed an EC50 in assay [3] of 100 to 1000 nM. The maximal fold induction in assay [4] was < 1.5.

In the case of `COc1cc(-c2cnc3cc(C(C)(C)CO)ccn23)cc(OC(F)F)c1C(=O)NC1CC1` [Cpd 150, N-cyclopropyl-2-(difluoromethoxy)-4-[7-(2-hydroxy-1,1-dimethyl-ethyl)imidazo[1,2-a]pyridin-3-yl]-6-methoxy-benzamide], the IC50 was > 500 nM in assay [1] and 0.01 to 10 nM in assay [2]. For the same molecule, the EC50 in assay [3] was 100 to 1000 nM. Besides, the maximal fold induction in assay [4] is < 1.5.

In the case of `COc1cc(-c2cnc3cc(C4CCC4)c(F)cn23)cc(OC(F)F)c1C(=O)NC1CC1` [Cpd 168, 4-(7-cyclobutyl-6-fluoro-imidazo[1,2-a]pyridin-3-yl)-N-cyclopropyl-2-(difluoromethoxy)-6-methoxy-benzamide], the IC50 fell in the range of 10 to 100 nM in assay [1] and 0.01 to 10 nM in assay [2]. Further, in assay [3], the concentration for a half-maximal effect (EC50) lay in the range of 100 to 1000 nM. The maximal fold induction in assay [4] is 1.5 to 4.5.

For the molecule `COc1cc(-c2cnc3cc(C4(O)CCOCC4)ccn23)cc(OC(F)F)c1C(=O)NC1CC1` [Cpd 170, N-cyclopropyl-2-(difluoromethoxy)-4-[7-(4-hydroxytetrahydropyran-4-yl)imidazo[1,2-a]pyridin-3-yl]-6-methoxy-benzamide], the IC50 is > 500 nM in assay [1] and 10 to 100 nM in assay [2]. In assay [3], this molecule gave an EC50 of 1000 to 5000 nM. Also, in assay [4], the maximal fold induction fell in the range of 1.5 to 4.5.

As for `COc1cc(-c2cnc3cc(C4CCCN4C)ccn23)cc(OC(F)F)c1C(=O)NC1CC1` (stereo not drawn) [Cpd 171, N-cyclopropyl-2-(difluoromethoxy)-6-methoxy-4-[7-(1-methylpyrrolidin-2-yl)imidazo[1,2-a]pyridin-3-yl]benzamide], the IC50 is > 500 nM in assay [1] and 10 to 100 nM in assay [2]. In assay [3], this molecule gave an EC50 of 1000 to 5000 nM. Further, in assay [4], the maximal fold induction lay within 1.5 to 4.5.

As for `COc1cc(-c2cnc3cc(C(C)(C)C(C)O)ccn23)cc(OC(F)F)c1C(=O)NC1CC1` (stereo not drawn) [Cpd 172, N-cyclopropyl-2-(difluoromethoxy)-4-[7-(2-hydroxy-1,1-dimethyl-propyl)imidazo[1,2-a]pyridin-3-yl]-6-methoxy-benzamide], the IC50 in assay [1] was > 500 nM; in assay [2] it was 10 to 100 nM. Moreover, in assay [3], the EC50 lay in the range of 100 to 1000 nM. For the same molecule, in assay [4], the maximal fold induction was < 1.5.

Consider `COc1cc(-c2cnc3cc(C4(O)CCC4)ccn23)cc(OC(F)F)c1C(=O)NC1CC1` [Cpd 173, N-cyclopropyl-2-(difluoromethoxy)-4-[7-(1-hydroxycyclobutyl)imidazo[1,2-a]pyridin-3-yl]-6-methoxy-benzamide], for which the half-maximal inhibitory concentration (IC50) in assay [1] was in the range of 100 to 500 nM; in assay [2] it was 10 to 100 nM. Besides, the EC50 in assay [3] lay within 100 to 1000 nM. Also, the maximal fold induction in assay [4] was in the range of 1.5 to 4.5.

In the case of `COc1cc(-c2cnc3cc(C4COC4)ccn23)cc(OC(F)F)c1C(=O)NC1CC1` [Cpd 174, N-cyclopropyl-2-(difluoromethoxy)-6-methoxy-4-[7-(oxetan-3-yl)imidazo[1,2-a]pyridin-3-yl]benzamide], the results for the IC50 in assay [1] and in assay [2] were 10 to 100 nM and 0.01 to 10 nM, respectively. In assay [3], this molecule showed an EC50 of 100 to 1000 nM. In addition, the maximal fold induction in assay [4] lay within 1.5 to 4.5.

In the case of `COc1cc(-c2cnc3cc(C(O)CC#N)ccn23)cc(OC(F)F)c1C(=O)NC1CC1` (stereo not drawn) [Cpd 175, 4-[7-(2-cyano-1-hydroxy-ethyl)imidazo[1,2-a]pyridin-3-yl]-N-cyclopropyl-2-(difluoromethoxy)-6-methoxy-benzamide], the IC50 in assay [1] was 100 to 500 nM; in assay [2] it was 10 to 100 nM. Also, the EC50 in assay [3] fell in the range of 1000 to 5000 nM. In addition, the maximal fold induction in assay [4] lay in the range of 1.5 to 4.5.

Regarding `COc1cc(-c2cnc3cc(C(C)(C#N)CO)ccn23)cc(OC(F)F)c1C(=O)NC1CC1` (stereo not drawn) [Cpd 176, 4-[7-(1-cyano-2-hydroxy-1-methyl-ethyl)imidazo[1,2-a]pyridin-3-yl]-N-cyclopropyl-2-(difluoromethoxy)-6-methoxy-benzamide], the IC50 in assay [1] is > 500 nM; in assay [2], 10 to 100 nM. The molecule also had a concentration for a half-maximal effect (EC50) in assay [3] of 100 to 1000 nM. In addition, the maximal fold induction in assay [4] lay within 1.5 to 4.5.

For `COCC(C)(C#N)c1ccn2c(-c3cc(OC)c(C(=O)NC4CC4)c(OC(F)F)c3)cnc2c1` (stereo not drawn) [Cpd 195, 4-[7-(1-cyano-2-methoxy-1-methyl-ethyl)imidazo[1,2-a]pyridin-3-yl]-N-cyclopropyl-2-(difluoromethoxy)-6-methoxy-benzamide], the IC50 in assay [1] is > 500 nM; in assay [2], 10 to 100 nM. This molecule also had an EC50 in assay [3] of 100 to 1000 nM. Besides, the maximal fold induction in assay [4] was < 1.5.

`COc1cc(-c2cnc3cc(C4(O)CCC4)ccn23)cc(OC(F)F)c1C(=O)N[C@@H]1C[C@@H]1F` [Cpd 205, 2-(difluoromethoxy)-N-[(1R,2S)-2-fluorocyclopropyl]-4-[7-(1-hydroxycyclobutyl)imidazo[1,2-a]pyridin-3-yl]-6-methoxy-benzamide]: the IC50 in assay [1] was in the range of 100 to 500 nM; in assay [2], 0.01 to 10 nM. In assay [3], the EC50 fell in the range of 100 to 1000 nM. For the same molecule, in assay [4], the maximal fold induction lay within 1.5 to 4.5.

`COc1cc(-c2cnc3cc(C4COC4)ccn23)cc(OC(F)F)c1C(=O)N[C@@H]1C[C@@H]1F` [Cpd 206, 2-(difluoromethoxy)-N-[(1R,2S)-2-fluorocyclopropyl]-6-methoxy-4-[7-(oxetan-3-yl)imidazo[1,2-a]pyridin-3-yl]benzamide]: the IC50 was 10 to 100 nM in assay [1] and 0.01 to 10 nM in assay [2]. In assay [3], this molecule gave an EC50 of 100 to 1000 nM. The maximal fold induction in assay [4] was 1.5 to 4.5.

`COc1cc(-c2cnc3cc(C4(F)COC4)ccn23)cc(OC(F)F)c1C(=O)NC1CC1` [Cpd 207, N-cyclopropyl-2-(difluoromethoxy)-4-[7-(3-fluorooxetan-3-yl)imidazo[1,2-a]pyridin-3-yl]-6-methoxy-benzamide]: the IC50 is 100 to 500 nM in assay [1] and 0.01 to 10 nM in assay [2]. In assay [3], this molecule had an EC50 of 100 to 1000 nM. For the same molecule, the maximal fold induction in assay [4] was < 1.5.

As for `COc1cc(-c2cnn3cc(C(C)(C)C#N)ccc23)cc(OC(F)F)c1C(=O)NC1CC1` [Cpd 208, 4-[6-(1-cyano-1-methyl-ethyl)pyrazolo[1,5-a]pyridin-3-yl]-N-cyclopropyl-2-(difluoromethoxy)-6-methoxy-benzamide], the concentration for half-maximal inhibition (IC50) in assay [1] is > 500 nM; in assay [2] it was 10 to 100 nM. Further, the EC50 in assay [3] lay within 0.1 to 100 nM. In assay [4], the maximal fold induction was < 1.5.

As to `COc1cc(-c2cnc3cc(C(C)(C)O)ccn23)cc(OC(F)F)c1C(=O)N[C@@H]1C[C@@H]1F` [Cpd 211, 2-(difluoromethoxy)-N-[(1R,2S)-2-fluorocyclopropyl]-4-[7-(1-hydroxy-1-methyl-ethyl)imidazo[1,2-a]pyridin-3-yl]-6-methoxy-benzamide], the figures for the IC50 in assay [1] and in assay [2] were 100 to 500 nM and 0.01 to 10 nM, respectively. In assay [3], this molecule came in with a concentration giving a half-maximal response (EC50) of 100 to 1000 nM. Also, in assay [4], the maximal fold induction lay in the range of 1.5 to 4.5.
